# Test results as given in patent publication US20150344444A1, “BET-PROTEIN-INHIBITING DIHYDROXYQUINOXALINONES” (BAYER PHARMA AKTIENGESELLSCHAFT, priority 2012, published 2015).
# Assays:
# [1] = target: T1, BRD4 Bromo Domain 2 [BRD4(2)] (Homo sapiens, UniProt O60885); experiment: BRD4(2)/acetylated peptide H4 binding assay (TR-FRET); conditions: inhibition of interaction between His6-tagged BRD4(2) (amino acids 357-445) and acetylated histone H4 peptide
# T1 construct: N-terminally His6-tagged BRD4(2) (amino acids 357-445); made in house; host or cells: E. coli
# From the text: Protein-Protein Interaction Assay: BRD4/Acetylated Peptide H4 Binding Assay
# 2. Assay Description for BRD4 Bromo Domain 2 [BRD4(2)]
# To assess the BRD4(2) binding strength of the substances described in this application, the ability thereof to inhibit the interaction between BRD4(2) and acetylated histone H4 in a dose-dependent manner was quantified.
# For this purpose, a time-resolved fluorescence resonance energy transfer (TR-FRET) assay was used, which measures the binding between N-terminally His6-tagged BRD4(2) (amino acids 357-445) and a synthetic acetylated histone H4 (Ac-H4) peptide with sequence SGRGK(Ac)GGK(Ac)GLGK(Ac)GGAK(Ac)RHRKVLRDNGSGSK-biotin. The recombinant BRD4(2) protein produced in house according to Filippakopoulos et al., Cell, 2012, 149:214-231 was expressed in E. coli and purified by means of (Ni-NTA) affinity and (Sephadex G-75) size exclusion chromatography. The Ac-H4 peptide can be purchased, for example, from Biosyntan (Berlin, Germany).
# In the assay, typically 11 different concentrations of each substance (0.1 nM, 0.33 nM, 1.1 nM, 3.8 nM, 13 nM, 44 nM, 0.15 μM, 0.51 μM, 1.7 μM, 5.9 μM and 20 μM) were analysed as duplicates on the same microtitre plate. For this purpose, 100-fold concentrated solutions in DMSO were prepared by serial dilutions (1:3.4) of a 2 mM stock solution into a clear, 384-well microtitre plate (Greiner Bio-One, Frickenhausen, Germany). From this, 50 nl were transferred into a black test plate (Greiner Bio-One, Frickenhausen, Germany). The test was started by the addition of 2 μl of a 2.5-fold concentrated BRD4(2) solution (final concentration typically 100 nM in the 5 μl of reaction volume) in aqueous assay buffer [50 mM HEPES pH 7.5, 50 mM sodium chloride (NaCl); 50 mM potassium fluoride (KF); 0.25 mM CHAPS and 0.05% serum albumin (BSA)] to the substances in the test plate. This was followed by a 10-minute incubation step at 22° C. for the pre-equilibration of putative complexes between BRD4(2) and the substances.
# The mixture was then incubated in the dark at 22° C. for one hour and then at 4° C. for at least 3 hours and for no longer than overnight. The formation of BRD4(2)/Ac-H4 complexes was determined by the measurement of the resonance energy transfer from the streptavidin-Eu chelate to the anti-6His-XL665 antibody present in the reaction. For this purpose, the fluorescence emission was measured at 620 nm and 665 nm after excitation at 330-350 nm in a TR-FRET measuring instrument, for example a Rubystar or Pherastar (both from BMG Lab Technologies, Offenburg, Germany) or a Viewlux (Perkin-Elmer). The ratio of the emissions at 665 nm and at 622 nm was taken as an indicator of the amount of BRD4(2)/Ac-H4 complexes formed.
# The data (ratios) obtained were normalized, with 0% inhibition corresponding to the mean from the measurements for a set of controls (typically 32 data points) in which all the reagents were present. In these, in place of test substances, 50 nl of DMSO (100%) were used Inhibition of 100% corresponded to the mean from the measurements for a set of controls (typically 32 data points) in which all the reagents except BRD4(2) were present. The IC50 was determined by regression analysis based on a 4-parameter equation (minimum, maximum, IC50, Hill; Y=max+(min−max)/(1+(X/IC50)Hill)).
# MOLM-13 cells = experiment: MOLM-13 cell proliferation assay (alamarBlue); type: cell-based; conditions: inhibition of cell proliferation, 96 hours, human AML cell line
# Procedure: (§1) In accordance with the invention, the ability of the substances to inhibit cell proliferation was determined Cell viability was determined by means of the alamarBlue® reagent (Invitrogen) in a Victor X3 Multilabel Reader (Perkin Elmer). The excitation wavelength was 530 nm and the emission wavelength […].
# The MOLM-13 cells (DSMZ, ACC 554) were sown at a concentration of 4000 cells/well in 100 μl of growth medium (RPMI1640, 10% FCS) on 96-well microtitre plates.
# (§2) After overnight incubation at 37° C., the fluorescence values were determined (CI values). Then the plates were treated with various substance dilutions (1E-5 M, 3E-6 M, 1E-6 M, 3E-7 M, 1E-7 M, 3E-8 M, 1E-8 M) and incubated at 37° C. over 96 hours (MOLM-13, B16F10 cells) or 120 hours (MOLP-8 cells). Subsequently, the fluorescence values were determined (CO values). For the data analysis, the CI values were subtracted from the CO values and the results were compared between cells which had been treated with various dilutions of the substance or only with buffer solution. The IC50 values (substance concentration needed for 50% inhibition of cell proliferation) were calculated therefrom.
# MOLM-13 human AML (acute myeloid leukaemia) cell line
# MOLP-8 cells = experiment: MOLP-8 cell proliferation assay (alamarBlue); type: cell-based; conditions: inhibition of cell proliferation, 120 hours, human multiple myeloma cell line
# Procedure: as §1
# The MOLP-8 cells (DSMZ, ACC 569) were sown at a concentration of 4000 cells/well in 100 μl of growth medium (RPMI1640, 20% FCS) on 96-well microtitre plates.
# as §2
# MOLP-8 human multiple myeloma cell line
Compound,IC50 [1],IC50 (MOLM-13 cells),IC50 (MOLP-8 cells)
"C[C@@H]1C(=O)N(C)c2ccc(Nc3ccc(C(=O)NC4CCCC4)cc3)cc2N1C1CCCC1 [Example 1, N-cyclopentyl-4-{[(3R)-4-cyclopentyl-1,3-dimethyl-2-oxo-1,2,3,4-tetrahydroquinoxalin-6-yl]amino}benzamide]",326 nM,1160 nM,1470 nM
"C[C@@H]1C(=O)N(C)c2ccc(Nc3ccc(C(=O)NC4CC4)cc3)cc2N1C1CCCC1 [Example 2, 4-{[(3R)-4-cyclopentyl-1,3-dimethyl-2-oxo-1,2,3,4-tetrahydroquinoxalin-6-yl]amino}-N-cyclopropylbenzamide]",222 nM,811 nM,727 nM
"C[C@@H]1C(=O)N(C)c2ccc(Nc3ccc(S(=O)(=O)N(C)C)cc3)cc2N1C1CCCC1 [Example 3, 4-{[(3R)-4-cyclopentyl-1,3-dimethyl-2-oxo-1,2,3,4-tetrahydroquinoxalin-6-yl]amino}-N,N-dimethylbenzenesulphonamide]",85 nM,289 nM,301 nM
"C[C@@H]1C(=O)N(C)c2ccc(Nc3ccc(C(=O)N4CCOCC4)cc3)cc2N1C1CCCC1 [Example 6, (3R)-4-cyclopentyl-1,3-dimethyl-6-{[4-(morpholin-4-ylcarbonyl)phenyl]amino}-3,4-dihydroquinoxalin-2(1H)-one]",80 nM,698 nM,271 nM
"CC(C)NC(=O)c1ccc(Nc2ccc3c(c2)N(C2CCCC2)[C@H](C)C(=O)N3C)cc1 [Example 7, 4-{[(3R)-4-cyclopentyl-1,3-dimethyl-2-oxo-1,2,3,4-tetrahydroquinoxalin-6-yl]amino}-N-isopropylbenzamide]",159 nM,1440 nM,637 nM

# Continued, in another order:
IC50 [1],IC50 (MOLM-13 cells),Compound,IC50 (MOLP-8 cells)
262 nM,2850 nM,"C[C@@H]1C(=O)N(C)c2ccc(Nc3ccc(C(=O)NC4CCN(C)CC4)cc3)cc2N1Cc1c(F)cccc1F (stereo in doubt) [Example 39, 4-{[4-(2,6-difluorobenzyl)-1,3-dimethyl-2-oxo-1,2,3,4-tetrahydroquinoxalin-6-yl]amino}-N-(1-methylpiperidin-4-yl)benzamide]",1740 nM
386 nM,> 10000 nM,"C[C@@H]1C(=O)N(C)c2ccc(Nc3ccc(C(=O)NC4CCC(N5CCN(CC6CC6)CC5)CC4)cc3)cc2N1Cc1c(F)cccc1F (stereo in doubt) [Example 40, N-{4-[4-(cyclopropylmethyl)piperazin-1-yl]cyclohexyl}-4-{[4-(2,6-difluorobenzyl)-1,3-dimethyl-2-oxo-1,2,3,4-tetrahydroquinoxalin-6-yl]amino}benzamide]",6620 nM
171 nM,627 nM,"C[C@@H]1C(=O)N(C)c2ccc(Nc3ccc(C(=O)N(C)C)cc3)cc2N1C1CCCC1 [Example 8, 4-{[(3R)-4-cyclopentyl-1,3-dimethyl-2-oxo-1,2,3,4-tetrahydroquinoxalin-6-yl]amino}-N,N-dimethylbenzamide]",521 nM
62 nM,366 nM,"C[C@@H]1C(=O)N(C)c2ccc(Nc3ccc(C(=O)NCC4COC4)cc3)cc2N1Cc1ccccc1 [Example 9, 4-{[(3R)-4-benzyl-1,3-dimethyl-2-oxo-1,2,3,4-tetrahydroquinoxalin-6-yl]amino}-N-(oxetan-3-ylmethyl)benzamide]",139 nM
64 nM,527 nM,"C[C@@H]1C(=O)N(C)c2ccc(Nc3ccc(C(=O)NC4CC4)cc3)cc2N1Cc1ccccc1 [Example 10, 4-{[(3R)-4-benzyl-1,3-dimethyl-2-oxo-1,2,3,4-tetrahydroquinoxalin-6-yl]amino}-N-cyclopropylbenzamide]",260 nM
107 nM,364 nM,"C[C@@H]1C(=O)N(C)c2ccc(Nc3ccc(C(=O)NC4CCN(C)CC4)cc3)cc2N1Cc1ccccc1 [Example 11, 4-{[(3R)-4-benzyl-1,3-dimethyl-2-oxo-1,2,3,4-tetrahydroquinoxalin-6-yl]amino}-N-(1-methylpiperidin-4-yl)benzamide]",102 nM
